Key:
Format in all cases: cell-based
H1299_eGFP cells [1] = assay: Side scatter (cellular granularity) by flow cytometry
Protocol: For silencing experiments, H1299_eGFP cells were seeded in 24 well plates at a density of 35000 cells/well and were allowed to settle overnight. Subsequently, the cells were transfected and treated with small molecular adjuvants as described previously. Note that for every siEGFP or siPLK1 condition an siCTRL sample was included to account for potential off target effects. SiNG-mediated eGFP silencing was determined by flow cytometry. […] The cells were collected, centrifuged during 5 minutes at 300 g, resuspended in 300 μL flow buffer and kept on ice until analysis. For each sample the forward and side scatter as well as the green fluorescent signal were measured for at least 5000 cells.

H1299_WT cells [2] = assay: Release of NG-delivered labeled oligonucleotides into the cytosol (positive nuclei); conditions: 40 μM, 20 h, after NG transfection; listed as DL
Protocol: (§1) To visualize the FITC-dextran release, a 1 mg/mL dispersion of 10 kDa FITC-dextrans (Sigma-Aldrich, Belgium) in complete cell medium was added during 1 hour at 37° C. in a humidified atmosphere containing 5% CO2. To assess oligonucleotide escape, the NGs were first loaded with 100 nM Alexa Fluor 647-labeled oligonucleotides (21-mer) (Eurogentec, Belgium) according to the procedure described for siRNA complexation. Of note, these oligonucleotides transfer to the nucleus upon release into the cytosol (Rehman et al., ACS Nano, 2013). Following four hours of NG transfection or 1 h incubation with FITC-dextrans, the cells were washed with PBS and received 1.5 mL fresh cell medium with or without 10, 20 or 40 μM DL. After an additional incubation period of 20 hours, the cell medium was removed and nuclei were labeled with Hoechst (Molecular Probes™, Belgium) in cell medium during 15 minutes at 37° C. […]
(§2) The samples were imaged using a laser scanning confocal microscope (LSCM, C1si, Nikon) and a 60× oil immersion Plan Apo objective (Nikon, Belgium). […] During data analysis with the ImageJ image processing software (NIH) both the total cell number and amount of cells with a diffuse FITC-dextran labeling or oligonucleotide-positive nuclei were counted. […]

H1299_WT cells [3] = assay: Release of FITC-dextrans into the cytosol (confocal microscopy); conditions: 40 μM, 20 h, 10 kDa FITC-dextran; listed as DL
Protocol: as §1, §2

H1299_WT cells [4] = assay: Sphingomyelin detection with lysenin; conditions: after siNG transfection
Protocol: Cell seeding, transfection and DL treatment of the H1299_WT cells occurred similar to the previous microscopy experiments. The subsequent staining procedure was carried out at room temperature. Following one washing step with PBS, the cells were fixed with 4% PFA during 15 minutes. The fixative was removed, the cells washed twice with PBS and permeabilized with 0.5% Tween 20 for 15 minutes. Next, the cells were washed twice with blocking buffer (BB, 2 wt % bovine serum albumin (Amresco, USA) in PBS) and kept in BB during 30 minutes. Upon removal, the cells were incubated 2 hours with a 1 μg/mL lysenin (Sigma-Aldrich, Belgium) solution in BB. Next the cells were washed twice with PBS before incubating 1 hour with the lysenin rabbit anti-human antiserum (1:500 in BB, Peptanova, Germany). Before and after the subsequent 1 hour incubation period with the secondary goat anti-rabbit Alexa Fluor 647 antibody (1:500 in BB, Molecular Probes™, Belgium), cells were washed with BB. Finally the cells were washed with PBS and stored at 4° C. covered with Vectashield containing DAPI. Using the 408 nm and 633 nm laser lines, the nuclei and sphingomyelin were excited respectively and detected with a LSCM and a 60× oil immersion objective.

H1299_eGFP cells [5] = assay: Cell viability following CAD incubation (CellTiter GLO)
Protocol: (§3) The silencing potential of siPLK1-NGs was established through evaluating the cell viability. Hereto, we applied the CellTiter GLO® assay (Promega, Belgium) according to the manufacturer's guidelines. Before initiating the assay, the culture plates and reconstituted assay buffer were placed at room temperature for 30 minutes. Next, the culture medium was replaced by 250 μL fresh cell medium and an equal volume of assay buffer was added. To induce complete cell lysis, the plates were shaken during 2 minutes and the signal was allowed to stabilize the following 10 minutes. 100 μL from each well was subsequently transferred to an opaque 96-well plate, which was measured with a GloMax® 96 Microplate Luminometer (Promega, Belgium). Three biological replicates were performed and data are expressed as the mean cell viability±SEM.
Please note that we only applied siCTRL-loaded NGs in this set of experiments. With the interest of evaluating the possible effect of our treatment on cell viability, the CellTiter GLO® assay was performed as described above. Again, three biological replicates were performed and data are expressed as the mean±SEM.

H1299_eGFP cells [6] = assay: siPLK1-NG silencing evaluated through cell viability (CellTiter GLO)
Protocol: as §3
All previous experiments were performed on the eGFP reporter gene. To evaluate whether our approach also works in a therapeutic setting we applied siRNA against Polo Like Kinase 1 (PLK1). […] To evaluate the PLK1 silencing we evaluated the effect on cell viability since both induction of cell cycle arrest or apoptosis would reduce the number of cells present compared to the untreated control.

H1299_eGFP cells [7] = assay: siNG transfection and sequential adjuvant treatment, eGFP silencing by flow cytometry

Question: For Clc1ccc2c(c1)CCc1cccnc1C2=C1CCNCC1 [(3) Desloratadine, Desloratadine], which “cellular granularity (SSC) at eGFP readout” value (H1299_eGFP cells [1]; 40 μM, 2 h incubation) is on record?
Answer: The value was “significant though minor augmentation”.

Question: What about the “increase in SSC signal” value (H1299_eGFP cells [1]; siNG transfection then 40 μM) of the same compound?
Answer: Its value is 1.8 fold.

Question: What about the Oligonucleotide positive nuclei (H1299_WT cells [2]) of the same compound?
Answer: The Oligonucleotide positive nuclei was 30%.

Question: What about the “Cells with diffuse FITC-dextran labeling” value (H1299_WT cells [3]) of the same compound?
Answer: The value was 26%.

Question: And the “sphingomyelin (lysenin) signal” value (H1299_WT cells [4])?
Answer: The value was “signal increases as a function of the desloratadine concentration”.

Question: What about the “additional cytotoxicity compared to siNGs alone” value (H1299_eGFP cells [5]) of the same compound?
Answer: Its value is “did not cause any additional cytotoxicity”.

Question: And the “transfected cells remaining viable” value (H1299_eGFP cells [5]; human, 20 h, 40 μM)?
Answer: The value was ~60%.

Question: What about the cell viability (H1299_eGFP cells [6]; 1 nM siPLK1-NG, second 40 μM treatment) of the same compound?
Answer: Its cell viability is ~50%.

Question: What about the viability at 40 µM (H1299_eGFP cells [6]; 1 nM siPLK1-NG, single 40 μM treatment, 2 h) of the same compound?
Answer: The viability at 40 µM was ~60%.

Question: And the “effect on cell viability reduction” value (H1299_eGFP cells [6]; 10 nM siPLK1-NG, single 2-hour treatment)?
Answer: Its value is “maximal effect on cell viability reduction”.

Question: What about the “siNG-mediated gene silencing, 2 h versus 20 h incubation” value (H1299_eGFP cells [7]; incubation 2 h or 20 h) of the same compound?
Answer: Its value is “improve siNG-mediated gene silencing to a similar extent”.

Question: And the “adjuvant effect on siNG-mediated eGFP silencing” value (H1299_eGFP cells [7]; sequential treatment 10, 20 or 40 μM, 20 h, siNGs 2 nM siRNA)?
Answer: The value was “significant additional silencing”.

— patent US11033572B2, “Molecular adjuvants for enhanced cytosolic delivery of active agents” (Universiteit Gent, priority 2017, dated 2021)
